One data set deals with SARS-CoV-2. Put plainly: SARS-CoV-2 assay in A549-ACE2 cells. The data set is classed as cell-based.
For a further data set, the target named is T1, DYRK1A (Homo sapiens, UniProt Q13627).
T1 construct: purchased Promega (NanoBRET Target Engagement K192 Kinase Selectivity System)
Put plainly: NanoBRET dose-response DYRK1A. It is filed as cell-based. The conditions noted are these: IC50 not determined, poor assay window. A general note: Bioluminescence resonance energy transfer reports proximity on the nanometre scale.

The next data set is described as follows: 24 h PK study in mice. The data set is classed as in vivo, CD-1 mice. The following applies: for concentration at 24 h: mouse, CD-1 mice, below limit of quantification, read-out: plasma concentration at the 24 h time point. As to the method: In the 24 h PK study, male CD-1 mice (6–8 weeks old, 20–30 g) were dosed by intravenous (i.v.), oral (p.o.), or intraperitoneal (i.p.) administration of compound 2. For i.v. administration, a single dose of compound 2 (3 mg/kg) was administered as 5 mL/kg of a 0.6 mg/mL solution in DMSO/PEG-400/Water (v/v/v, 10:30:60) to six mice. For p.o. administration, a single dose of compound 2 (10 mg/kg) was administered as 10 mL/kg of a 1 mg/mL solution in DMSO/PEG-400/Water (v/v/v, 10:30:60) to six mice. For i.p. administration, a single dose of compound 2 (10 mg/kg) was administered as 10 mL/kg of a 1 mg/mL solution in DMSO/PEG-400/Water (v/v/v, 10:30:60) to six mice. The mice had free access to water and food. At 0.083, 0.25, 0.5, 1, 2, 4, 8, 12, and 24 h post dose administration, 0.03 mL of blood was collected from the dorsal metatarsal vein of three mice at each time point. Each blood sample was transferred into a plastic microcentrifuge tube containing EDTA-K2 anticoagulant and mixed well with the anticoagulant then placed on ice prior to centrifugation at 4000× g for 5 min at 4 °C to obtain plasma. The samples were stored in a freezer at −75 ± 15 °C prior to analysis. At 12 h post dose administration and 24 h post dose administration, three mice were anesthetized using increasing concentrations of CO2, and lung samples were collected. Lung samples were quickly frozen in an ice box and stored at −75 ± 15 °C. Prior to analysis, all lung samples were weighed and homogenized with phosphate-buffered saline (PBS) in a lung weight (g)/buffer volume (mL) ratio of 1:3. The final concentration of the compound was calculated by multiplying the detected concentration by a dilution factor of four.
Concentrations of the test compound in the plasma samples were determined using a Prominence LC-MS/MS system with a DGU-20A5R(C) degasser, LC-30AD pump, CBM-20A system controller, SIL-20AC HT autosampler; Rack changer II, HALO 90A ES-CN (2.7 μm, 2.1 × 50 mm) column, and AB Sciex Triple Quan 5500 LC/MS/MS instrument. The mobile phase was 5–95% MeCN in H2O, with 0.1% formic acid. The desired serial concentrations of working solutions were achieved by diluting the stock solution of the analyte with 50% acetonitrile in water. A series of 10 µL working solutions […] were added to 10 μL of blank plasma or lung homogenate to achieve calibration standards of 0.5, 1, 2, 5, 10, 50, 100, 500, 1000 ng/mL in a total volume of 20 μL. A total of 5 quality control samples at 1 ng/mL, 2 ng/mL, 5 ng/mL, 100 ng/mL, and 800 ng/mL were prepared independently of those used for the calibration curves in the same manner. A 20 μL standard, 20 μL QC sample, and 20 μL of an unknown sample (10 µL plasma or lung homogenate with 10 µL blank solution) were added to 200 μL of acetonitrile containing internal standard mixture for precipitating protein. Then, the samples were vortexed for 30 s. After centrifugation at 4 °C and 4000 rpm for 15 min, the supernatant was diluted with ultrapure water at a ratio of 1:2 (v/v, 1:2), then 20 µL of diluted supernatant was injected into the LC/MS/MS system for quantitative analysis. PK parameters were calculated from the mean plasma concentration versus time using a noncompartmental model in WinNonlin Phoenix version 8.3.

Setting [1] is: male, ip, CD-1 mouse plasma, 10 mg/kg i.p.
Where [2] appears, read: male, iv, CD-1 mouse plasma, 3 mg/kg i.v.
The mark [3] stands for this setting: male, po, CD-1 mouse plasma, 10 mg/kg p.o.

Where two headings read alike, the source gives them in different places.

`CCC(=O)Nc1cc(Nc2cc(NC3CC3)n3ncc(C#N)c3n2)c(F)cc1N1CCC[C@H](NC)C1` [Compound 2, (S)-N-(5-((3-cyano-7-(cyclopropylamino)pyrazolo[1,5-a]pyrimidin-5-yl)amino)-4-fluoro-2-(3-(methylamino)piperidin-1-yl)phenyl)propionamide] gave an IC90 in the data set on SARS-CoV-2 (Severe acute respiratory syndrome coronavirus 2) of 2.2 µM. Also, the IC50 in the data set with SARS-CoV-2 (Severe acute respiratory syndrome coronavirus 2, triplicate, read-out: SARS-CoV-2 pIC50 (converted)) was 0.316 µM. On DYRK1A, the “occupancy in the dose-response experiment” value is reported as “no occupancy was observed up to 10 μM”. In the data set “24 h PK study in mice” (setting [1]), the AUC(0-t) was determined as 10.1 µM·h, the Cmax was 2650 nM, the Tmax amounted to 0.5 h and the half-life was 2.5 h. Besides, in the data set “24 h PK study in mice” (setting [2]), the AUC(0-t) is 1.87 µM·h and the half-life was 1.9 h. Moreover, the Vd in the data set “24 h PK study in mice” (male, iv, CD-1 mouse plasma, 3 mg/kg i.v., read-out: Vdss) is 3.5 L/kg. Also, in “24 h PK study in mice” (male, plasma, iv, 3 mg/kg i.v.), the concentration at 24 h is under 1.02 nM. Besides, in the data set “24 h PK study in mice” (male, plasma, po, 10 mg/kg p.o.), the concentration at 24 h was under 1.02 nM. The compound also yielded a bioavailability in “24 h PK study in mice” (male, plasma, po, CD-1 mouse, 10 mg/kg p.o.) of 52%. In “24 h PK study in mice” (setting [3]), the AUC(0-t) turned out to be 3.13 µM·h, the Cmax was found to be 563 nM, the Tmax was 2.7 h and the half-life was 2.1 h. Besides, the lung concentrations result in “24 h PK study in mice” (mice, 12 and 24 h post dose administration) is on record as “accumulated in the lungs”.

What is called IC90 is the concentration needed for an effect of 90%. Broadly, the AUC(0-t) is the area under the concentration-time curve up to a stated or last time point. Read a low AUC(0-t) as low exposure. What is called Cmax is the peak of the concentration-time curve. By Tmax is commonly meant the time at which the peak concentration occurs. For orientation: half-life means the time needed for the level to fall by half in the phase considered. The bioavailability is dose-corrected exposure relative to a reference, in per cent. Lower therefore signals little systemic uptake.

The values above are taken from article PMC11397024, “Strategic Fluorination to Achieve a Potent, Selective, Metabolically Stable, and Orally Bioavailable Inhibitor of CSNK2” (Molecules, 2024).
